From the supplement of paper PMC10307832

compound: CO[C@@H]1[C@H](N(C)C(=O)c2ccccc2)C[C@H]2O[C@]1(C)n1c3ccccc3c3c4c(c5c6ccccc6n2c5c31)C(=O)NC4 [Midostaurin] + CC1(C)CCC(c2ccc(Cl)cc2)=C(CN2CCN(c3ccc(C(=O)NS(=O)(=O)c4ccc(N[C@H](CCN5CCOCC5)CSc5ccccc5)c(S(=O)(=O)C(F)(F)F)c4)cc3)CC2)C1 [Navitoclax] (partner 0.5 µM); experiment: relative viability (nuclei count vs DMSO), 5 days (fraction); higher = more cells survive; details: first compound 0.3162 µM
Method in brief: (§1)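 Relative viability was taken as the ratio of nuclei in treated wells to nuclei in vehicle wells. Lung cancer cell lines in 1536-well plates received compounds by pin tool one day after seeding, either one drug alone or a fixed anchor-drug dose plus five library-drug doses (not always all listed) in √10 steps. Nuclei were counted on 4× images after 5 days of treatment, and values are medians of duplicate plates.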

Cell Line	relative viability
LK-2	0.825
NCI-H2087	0.897
SK-MES-1	1.15
H3255	0.562
COR-L23	0.925
IA-LM	0.631
ChaGo-K-1	1.25
HCC-44	0.96
A549	0.77
NCI-H1299	1.01
NCI-H1792	0.647

compound: CO[C@@H]1[C@H](N(C)C(=O)c2ccccc2)C[C@H]2O[C@]1(C)n1c3ccccc3c3c4c(c5c6ccccc6n2c5c31)C(=O)NC4 [Midostaurin] + COc1cc2c(Oc3ccc(NC(=O)C4(C(=O)Nc5ccc(F)cc5)CC4)cc3F)ccnc2cc1OCCCN1CCOCC1 [Foretinib] (partner 0.25 µM); experiment: as above; details: first compound 0.01 µM
Method in brief: as §1

Cell Line	relative viability
NCI-H2342	1.03
NCI-H1623	0.995
NCI-H727	1.11
NCI-H1650	1.16
EBC-1	0.104
NCI-H1703	0.351
NCI-H1993	0.863
SW 1573	1.05
NCI-H838	1.05
LCLC-103H	0.729
NCI-H520	0.68
NCI-H2126	1.19
EMC-BAC-2	0.961
NCI-H2085	1.02
Calu-6	0.879
HCC-366	0.932
NCI-H1666	0.881

Cell Line	relative viability
NCI-H596	0.816
LK-2	1.19
NCI-H2087	1.15
SK-MES-1	0.927
H3255	0.894
COR-L23	1.03
IA-LM	1.15
ChaGo-K-1	0.888
A549	0.871
SW 900	0.876
NCI-H661	0.903
NCI-H1299	1.07
NCI-H1563	0.985
ABC-1	1.03
NCI-H358	0.821
NCI-H650	0.959

same assay, conditions: first compound 0.03162 µM

Cell Line	relative viability
NCI-H2342	0.933
NCI-H1623	0.876
NCI-H727	0.932
NCI-H1650	1.11
EBC-1	0.103
NCI-H1703	0.316
NCI-H1993	0.761
SW 1573	0.806
NCI-H838	0.939
LCLC-103H	0.661
NCI-H520	0.715
NCI-H2126	1.14
EMC-BAC-2	0.828
NCI-H2085	0.845
Calu-6	0.921
HCC-366	0.957
NCI-H1666	0.954

Cell Line	relative viability
NCI-H596	0.969
LK-2	1.36
NCI-H2087	0.942
SK-MES-1	0.925
H3255	0.793
COR-L23	0.954
IA-LM	0.86
ChaGo-K-1	0.99
A549	0.781
SW 900	0.746
NCI-H661	0.847
NCI-H1299	1.04
NCI-H1563	0.976
ABC-1	1.14
NCI-H358	0.784
NCI-H650	0.95

same assay, conditions: first compound 0.1 µM

Cell Line	relative viability
NCI-H2342	0.961
NCI-H1623	0.949
NCI-H727	0.829
NCI-H1650	0.911
EBC-1	0.112
NCI-H1703	0.292
NCI-H1993	0.765
SW 1573	1.03
NCI-H838	0.759
LCLC-103H	0.656
NCI-H520	0.661
NCI-H2126	1.04
EMC-BAC-2	0.822
NCI-H2085	0.863
Calu-6	0.89
HCC-366	0.81
NCI-H1666	0.786

Cell Line	relative viability
NCI-H596	0.723
LK-2	0.955
NCI-H2087	1.21
SK-MES-1	0.963
H3255	0.833
COR-L23	0.9
IA-LM	1.23
ChaGo-K-1	0.785
A549	0.939
SW 900	0.822
NCI-H661	1.02
NCI-H1299	1.05
NCI-H1563	0.847
ABC-1	0.828
NCI-H358	0.706
NCI-H650	1.01

same assay, conditions: first compound 0.3162 µM

Cell Line	relative viability
NCI-H2342	0.92
NCI-H1623	0.941
NCI-H727	0.846
NCI-H1650	1.19
EBC-1	0.102
NCI-H1703	0.325
NCI-H1993	0.935
SW 1573	1.01
NCI-H838	0.497
LCLC-103H	0.791
NCI-H520	0.688
NCI-H2126	1.15
EMC-BAC-2	0.708
NCI-H2085	0.555
Calu-6	0.835
HCC-366	0.75
NCI-H1666	0.754

Cell Line	relative viability
NCI-H596	0.896
LK-2	1.13
NCI-H2087	0.775
SK-MES-1	0.781
H3255	0.959
COR-L23	0.892
IA-LM	1.05
ChaGo-K-1	0.946
A549	0.99
SW 900	0.763
NCI-H661	1.04
NCI-H1299	0.976
NCI-H1563	0.785
ABC-1	1.11
NCI-H358	0.662
NCI-H650	0.767
